# Source: publication PMC2410175, “A phase I and pharmacological study of the matrix metalloproteinase inhibitor BB-3644 in patients with solid tumours” (British Journal of Cancer, 2004)
# Read-outs that look alike come from different tables or passages of the source.
# Assays:
# [1] = ref Wojtowicz-Praga et al, 1998, cited from earlier work
# [2] = Phase I dose-escalation study: DLT, MTD and adverse events
# Protocol: Patients over the age of 18 were required to be of ECOG performance status 0, 1 or 2, and to have a predicted survival of at least 3 months.
# This was a phase I, open-label, dose-escalation study. BB-3644 was supplied as capsules comprising 5, 10, 20 and 40 mg BB-3644 (with maize starch, colloidal silica, magnesium stearate and lactose) by British Biotech Pharmaceuticals Ltd, UK. BB-3644 was administered orally twice daily for 84 days to cohorts of patients at doses 5, 10, 20 and 30 mg. […] Dose-limiting toxicity was defined as ‘an adverse reaction likely to be caused by the study drug and unlikely to be attributed to concurrent disease or other drugs or chemicals’. Essentially, any toxicity graded by CTC criteria as at least grade II was considered to be a DLT, as this could preclude chronic oral administration of a drug. If one patient experienced DLT, the cohort size was increased to six patients for that dose level. Further dose escalation was performed, provided that no more than […] patients experienced DLT by day 28. Nine patients were to be treated at the highest dose level. Patients experiencing DLT were eligible to continue treatment at a reduced dose following resolution of toxicity.
# Physical examination, chest radiograph, haematology and serum chemistry were checked at baseline, every 4 weeks and at study termination. […] Patients were also reviewed by an opthalmologist at these times, to check the visual acuity, visual fields, and examine the whole eye and the fundi.
# clinical = settings: human, in vivo; for half-life: T1/2; for AUC(0-t): AUC0–24
# Protocol: Blood samples were collected in heparinised tubes before treatment, every 15 min for 2 h, at 2 h 30 min, 3, 4, 6, 8, 10 and 24 h on days 1 and 14 for the measurement of BB-3644. Blood samples were kept on ice. They were centrifuged at 4°C (1500 g for 10 min) within 30 min of collection. The supernatant plasma was collected and frozen at −70°C or cooler, until sent for analysis. Samples were analysed centrally in the Department of Drug Metabolism and Pharmacokinetics at British Biotech, UK.
# Samples were analysed for BB-3644 content using a validated reverse-phase HPLC method with mass spectrometric detection. The limit of quantification was 1 ng ml^−1. The data were analysed using WinNonlin v2.1 Standard version (Pharsight Corporation, USA). PK parameters were derived from individual plasma concentration–time data, using noncompartmental analysis.
# On the days of PK sampling, only the morning dose of BB-3644 was taken.
# solid tumours = test: Assessment of response in the phase I study; assay type: in vivo, patients
# Protocol: Disease assessment was performed at baseline and repeated at 84 days or at withdrawal from the study. Patients were reviewed 4 weeks after withdrawal from the study.
# Response was formally assessed radiologically after 3 months of therapy.
# collagenase-3 = settings: background data, no reference given; read-out: IC50 against collagenase-3; cited from earlier work
# gelatinase A = settings: background data, no reference given; read-out: IC50 against gelatinase A; cited from earlier work
# enkephalinase = settings: background data, no reference given; read-out: IC50 against enkephalinase; cited from earlier work
# [3] = system: processing of cell-bound TNF-α; settings: relative to marimastat; background data, no reference given; cited from earlier work
# [4] = system: MDA-435 human breast carcinoma; parameters: method as in British Biotech, unpublished data; settings: MDA-435 human breast carcinoma model; ref British Biotech, unpublished data; cited from earlier work
# B16-BL6 murine melanoma = system: B16-BL6 murine melanoma; parameters: method as in British Biotech, unpublished data; settings: B16-BL6 murine melanoma model; ref British Biotech, unpublished data; cited from earlier work
# [5] = system: HODP.IP rat mammary carcinoma cells; parameters: method as in British Biotech, unpublished data; settings: lung colonisation model, ref British Biotech, unpublished data; cited from earlier work
# [6] = parameters: method as in British Biotech, unpublished data; settings: marmosets; ref British Biotech, unpublished data; cited from earlier work
# [7] = rhesus monkey, in vivo; cited from earlier work
# [8] = cited from earlier work
# [9] = of the 13 patients that completed 12 weeks of therapy
compound,measurement,setting,value
CNC(=O)[C@@H](NC(=O)[C@H](CC(C)C)[C@H](O)C(=O)NO)C(C)(C)C [marimastat],treatment-limiting toxicities,"[1]; clinical testing of marimastat, Tierney et al, 1999, Evans et al, 2001",Musculoskeletal pain and inflammation
same,AUC achieved at the MTD,[1]; phase I studies of marimastat,2623 ng·h/mL
CO[C@H](C(=O)NO)[C@@H](CC(C)C)C(=O)N[C@H](C(=O)Nc1ccccn1)C(C)(C)C [BB-3644],maximum tolerated dose (MTD),[2]; 28 days of oral treatment,20 mg bd
same,maximum tolerated dose (MTD),"[2]; chronic oral dosing (>28 days, up to 84 days)",5 mg bd
same,patients with musculoskeletal DLTs (number),"[2]; human, in vivo, 84 days",14
same,patients with musculoskeletal DLTs (share),"[2]; human, in vivo, 84 days",64%
same,SAE considered possibly related to the study drug,[2]; in vivo,thromboembolic episodes
same,ophthalmological or gall bladder-related toxicity,[2]; in vivo,no significant opthalmological or gall bladder-related toxicity
same,patients who developed phlebitis,[2]; in vivo,Two
same,patients with dose-limiting malaise (NCI CTC toxicity >grade 1),[2]; in vivo,Two
same,"dose-limiting toxicity (DLT), nature","[2]; in vivo, po",musculoskeletal pain
same,"time to mean maximal concentration, range over dose levels",clinical,30 to 90 min
same,T1/2,clinical; 5 mg,4 h
same,Tmax,clinical; 5 mg,1 h
same,half-life,clinical; 5 mg,2 h
same,Tmax,"clinical; 5 mg, Tmax",0.75 h
same,Cmax,clinical; 10 mg,179 ng/mL
same,T1/2,clinical; 10 mg,2.5 h
same,Tmax,clinical; 10 mg,1 h
same,Cmax,"clinical; 10 mg, Cmax",114 ng/mL
same,half-life,clinical; 10 mg,1.5 h
same,Tmax,"clinical; 10 mg, Tmax",0.5 h
same,AUC0–24,clinical; 20 mg,1248 ng·h/mL
same,Cmax,clinical; 20 mg,282 ng/mL
same,T1/2,clinical; 20 mg,3 h
same,Tmax,clinical; 20 mg,0.75 h
same,AUC(0-t),clinical; 20 mg,781 ng·h/mL
same,Cmax,"clinical; 20 mg, Cmax",232 ng/mL
same,half-life,clinical; 20 mg,1.5 h
same,Tmax,"clinical; 20 mg, Tmax",0.5 h
same,AUC0–24,clinical; 30 mg,4401 ng·h/mL
same,Cmax,clinical; 30 mg,536 ng/mL
same,Tmax,clinical; 30 mg,1.75 h
same,AUC(0-t),clinical; 30 mg,2520 ng·h/mL
same,Cmax,"clinical; 30 mg, Cmax",315 ng/mL
same,half-life,clinical; 30 mg,6 h
same,Tmax,"clinical; 30 mg, Tmax",1.5 h
same,"therapeutic activity, overall conclusion","solid tumours; 22 patients, 5 to 30 mg bd",no evidence of beneficial therapeutic activity
same,patients with progressive disease radiologically,solid tumours; [9],11
same,patients with stable disease radiologically,solid tumours; [9],two
same,IC50,collagenase-3,3 nM
same,IC50,gelatinase A,80 nM
same,IC50,enkephalinase,40 nM
same,fold more active than marimastat in inhibiting the processing of cell-bound TNF-α,[3],> 10 fold
same,activity in inhibiting tumour growth,[4],activity in inhibiting tumour growth
same,activity in inhibiting tumour growth,B16-BL6 murine melanoma,activity in inhibiting tumour growth
same,tendinitis of the hind limbs,[5],did not cause tendinitis of the hind limbs
same,joint toxicity,[6],induced inflammation of joint ligaments and tendons
same,principal toxicity,[6],"cell debris in the gall bladder, with mucosal erosions and epithelial hyperplasia"
same,principal toxicity,[7],"cell debris in the gall bladder, with mucosal erosions and epithelial hyperplasia"
same,toxicity at higher doses,"[8]; dog, in vivo",Encephalopathy
same,ocular changes,"[8]; dogs, ref British Biotech, unpublished data","conjunctival hyperaemia, chemosis, corneal stromal limbal vascularisation and diffuse corneal haze and flocculation"
